From the NIST ThermoML archive (doi:10.1021/je900050z)
Where “and” joins values, the source holds several entries; their conditions need not be identical. Equal entries are not always repeated. Numbers after ± are expanded uncertainties.

Conditions: Liquid

CCCC(C)O (stereo unspecified) [pentan-2-ol]
vapor or sublimation pressure (323.84 K): 4.16 ± 0.34 kPa | vapor or sublimation pressure (324.19 K): 4.41 ± 0.36 kPa | vapor or sublimation pressure (324.55 K): 4.39 ± 0.36 kPa | vapor or sublimation pressure (325.09 K): 4.67 ± 0.38 kPa | vapor or sublimation pressure (326 K): 4.93 ± 0.4 kPa | vapor or sublimation pressure (326.22 K): 4.89 ± 0.4 kPa | vapor or sublimation pressure (326.99 K): 5.27 ± 0.43 kPa | vapor or sublimation pressure (327.15 K): 5.2 ± 0.42 kPa | vapor or sublimation pressure (327.64 K): 5.43 ± 0.44 kPa | vapor or sublimation pressure (328.19 K): 5.71 ± 0.46 kPa | vapor or sublimation pressure (328.23 K): 5.64 ± 0.46 kPa | vapor or sublimation pressure (329.05 K): 5.91 ± 0.48 kPa | vapor or sublimation pressure (329.11 K): 5.95 ± 0.48 kPa and 6.04 ± 0.49 kPa | vapor or sublimation pressure (329.66 K): 6.16 ± 0.5 kPa | vapor or sublimation pressure (329.9 K): 6.33 ± 0.51 kPa | vapor or sublimation pressure (330.86 K): 6.71 ± 0.54 kPa | vapor or sublimation pressure (331.78 K): 7.08 ± 0.57 kPa | vapor or sublimation pressure (332.29 K): 7.17 ± 0.58 kPa | vapor or sublimation pressure (332.55 K): 7.4 ± 0.6 kPa | vapor or sublimation pressure (332.61 K): 7.31 ± 0.59 kPa | vapor or sublimation pressure (332.92 K): 7.43 ± 0.6 kPa | vapor or sublimation pressure (333.15 K): 7.52 ± 0.6 kPa | vapor or sublimation pressure (333.37 K): 7.76 ± 0.62 kPa | vapor or sublimation pressure (333.88 K): 7.99 ± 0.64 kPa | vapor or sublimation pressure (334.61 K): 8.33 ± 0.67 kPa | vapor or sublimation pressure (335.52 K): 8.77 ± 0.7 kPa | vapor or sublimation pressure (336.34 K): 9.17 ± 0.74 kPa | vapor or sublimation pressure (336.37 K): 9.19 ± 0.74 kPa | vapor or sublimation pressure (337.2 K): 9.59 ± 0.77 kPa | vapor or sublimation pressure (337.85 K): 9.95 ± 0.8 kPa | vapor or sublimation pressure (338.74 K): 10.43 ± 0.84 kPa | vapor or sublimation pressure (339.44 K): 10.81 ± 0.87 kPa | vapor or sublimation pressure (340.1 K): 11.21 ± 0.9 kPa | vapor or sublimation pressure (340.82 K): 11.67 ± 0.94 kPa | vapor or sublimation pressure (341.54 K): 12.11 ± 0.97 kPa | vapor or sublimation pressure (342.2 K): 12.52 ± 1 kPa | vapor or sublimation pressure (342.83 K): 12.77 ± 1 kPa | vapor or sublimation pressure (342.88 K): 12.97 ± 1 kPa | vapor or sublimation pressure (343.15 K): 13 ± 1 kPa | vapor or sublimation pressure (343.26 K): 13.07 ± 1.1 kPa | vapor or sublimation pressure (343.3 K): 13.11 ± 1.1 kPa | vapor or sublimation pressure (343.38 K): 13.16 ± 1.1 kPa | vapor or sublimation pressure (344.38 K): 13.99 ± 1.1 kPa | vapor or sublimation pressure (345.27 K): 14.65 ± 1.2 kPa | vapor or sublimation pressure (346.15 K): 15.31 ± 1.2 kPa | vapor or sublimation pressure (347.02 K): 15.96 ± 1.3 kPa | vapor or sublimation pressure (347.8 K): 16.63 ± 1.3 kPa | vapor or sublimation pressure (348.68 K): 17.32 ± 1.4 kPa | vapor or sublimation pressure (349.38 K): 17.95 ± 1.4 kPa | vapor or sublimation pressure (350.16 K): 18.63 ± 1.5 kPa | vapor or sublimation pressure (350.93 K): 19.31 ± 1.6 kPa | vapor or sublimation pressure (351.64 K): 19.96 ± 1.6 kPa | vapor or sublimation pressure (351.88 K): 20 ± 1.6 kPa | vapor or sublimation pressure (352.33 K): 20.43 ± 1.6 kPa | vapor or sublimation pressure (352.6 K): 20.65 ± 1.6 kPa | vapor or sublimation pressure (352.7 K): 20.72 ± 1.7 kPa | vapor or sublimation pressure (352.76 K): 20.83 ± 1.7 kPa | vapor or sublimation pressure (352.89 K): 20.96 ± 1.7 kPa | vapor or sublimation pressure (353.05 K): 21.12 ± 1.7 kPa | vapor or sublimation pressure (353.1 K): 21.19 ± 1.7 kPa | vapor or sublimation pressure (353.15 K): 21.2 ± 1.7 kPa | vapor or sublimation pressure (353.35 K): 21.4 ± 1.7 kPa | vapor or sublimation pressure (354.12 K): 22.16 ± 1.8 kPa | vapor or sublimation pressure (354.72 K): 22.83 ± 1.8 kPa | vapor or sublimation pressure (355.42 K): 23.55 ± 1.9 kPa | vapor or sublimation pressure (355.92 K): 24.12 ± 1.9 kPa | vapor or sublimation pressure (356.39 K): 24.44 ± 2 kPa | vapor or sublimation pressure (356.55 K): 24.84 ± 2 kPa | vapor or sublimation pressure (357.15 K): 25.47 ± 2 kPa | vapor or sublimation pressure (357.76 K): 26.2 ± 2.1 kPa | vapor or sublimation pressure (357.79 K): 26 ± 2.1 kPa | vapor or sublimation pressure (358.23 K): 26.75 ± 2.1 kPa | vapor or sublimation pressure (358.83 K): 27.45 ± 2.2 kPa | vapor or sublimation pressure (358.88 K): 27.32 ± 2.2 kPa | vapor or sublimation pressure (359.01 K): 27.45 ± 2.2 kPa | vapor or sublimation pressure (359.53 K): 28.19 ± 2.3 kPa | vapor or sublimation pressure (359.91 K): 28.67 ± 2.3 kPa | vapor or sublimation pressure (360.35 K): 29.25 ± 2.3 kPa | vapor or sublimation pressure (360.5 K): 29.41 ± 2.4 kPa | vapor or sublimation pressure (361.12 K): 30.29 ± 2.4 kPa | vapor or sublimation pressure (361.45 K): 30.68 ± 2.5 kPa | vapor or sublimation pressure (362.1 K): 31.59 ± 2.5 kPa | vapor or sublimation pressure (362.5 K): 32.13 ± 2.6 kPa | vapor or sublimation pressure (362.93 K): 32.73 ± 2.6 kPa | vapor or sublimation pressure (363.38 K): 33.35 ± 2.7 kPa | vapor or sublimation pressure (363.85 K): 34.05 ± 2.7 kPa | vapor or sublimation pressure (364.28 K): 34.64 ± 2.8 kPa | vapor or sublimation pressure (364.84 K): 35.47 ± 2.8 kPa | vapor or sublimation pressure (365.13 K): 35.95 ± 2.9 kPa | vapor or sublimation pressure (365.62 K): 36.71 ± 2.9 kPa | vapor or sublimation pressure (366.01 K): 37.32 ± 3 kPa | vapor or sublimation pressure (366.4 K): 37.95 ± 3 kPa | vapor or sublimation pressure (366.86 K): 38.64 ± 3.1 kPa | vapor or sublimation pressure (367.24 K): 39.31 ± 3.1 kPa | vapor or sublimation pressure (367.65 K): 39.97 ± 3.2 kPa | vapor or sublimation pressure (368.06 K): 40.64 ± 3.2 kPa | vapor or sublimation pressure (368.44 K): 41.27 ± 3.3 kPa | vapor or sublimation pressure (368.85 K): 41.96 ± 3.4 kPa | vapor or sublimation pressure (369.31 K): 42.73 ± 3.4 kPa | vapor or sublimation pressure (369.58 K): 43.23 ± 3.5 kPa | vapor or sublimation pressure (370.05 K): 44.05 ± 3.5 kPa | vapor or sublimation pressure (370.46 K): 44.75 ± 3.6 kPa | vapor or sublimation pressure (370.74 K): 45.4 ± 3.6 kPa | vapor or sublimation pressure (371.07 K): 45.91 ± 3.7 kPa | vapor or sublimation pressure (371.47 K): 46.64 ± 3.7 kPa | vapor or sublimation pressure (371.82 K): 47.45 ± 3.8 kPa | vapor or sublimation pressure (372.15 K): 47.93 ± 3.8 kPa | vapor or sublimation pressure (372.5 K): 48.64 ± 3.9 kPa | vapor or sublimation pressure (372.91 K): 49.31 ± 4 kPa | vapor or sublimation pressure (373.16 K): 49.87 ± 4 kPa | vapor or sublimation pressure (373.57 K): 50.71 ± 4.1 kPa | vapor or sublimation pressure (373.88 K): 51.25 ± 4.1 kPa | vapor or sublimation pressure (374.25 K): 52.03 ± 4.2 kPa | vapor or sublimation pressure (374.47 K): 52.55 ± 4.2 kPa | vapor or sublimation pressure (374.85 K): 53.37 ± 4.3 kPa | vapor or sublimation pressure (375.14 K): 53.95 ± 4.3 kPa | vapor or sublimation pressure (375.44 K): 54.67 ± 4.4 kPa | vapor or sublimation pressure (375.83 K): 55.37 ± 4.4 kPa | vapor or sublimation pressure (376.13 K): 56.01 ± 4.5 kPa | vapor or sublimation pressure (376.47 K): 56.71 ± 4.5 kPa | vapor or sublimation pressure (376.74 K): 57.36 ± 4.6 kPa | vapor or sublimation pressure (377.07 K): 58 ± 4.6 kPa | vapor or sublimation pressure (377.32 K): 58.64 ± 4.7 kPa | vapor or sublimation pressure (377.65 K): 59.32 ± 4.8 kPa | vapor or sublimation pressure (377.91 K): 59.97 ± 4.8 kPa | vapor or sublimation pressure (378.22 K): 60.67 ± 4.8 kPa | vapor or sublimation pressure (378.56 K): 61.4 ± 4.9 kPa | vapor or sublimation pressure (378.81 K): 61.97 ± 5 kPa | vapor or sublimation pressure (379.04 K): 62.61 ± 5 kPa | vapor or sublimation pressure (379.39 K): 63.39 ± 5.1 kPa | vapor or sublimation pressure (379.6 K): 63.91 ± 5.1 kPa | vapor or sublimation pressure (379.89 K): 64.6 ± 5.2 kPa | vapor or sublimation pressure (380.13 K): 65.2 ± 5.2 kPa | vapor or sublimation pressure (380.47 K): 65.99 ± 5.3 kPa | vapor or sublimation pressure (380.7 K): 66.63 ± 5.3 kPa | vapor or sublimation pressure (381 K): 67.31 ± 5.4 kPa | vapor or sublimation pressure (381.26 K): 68.01 ± 5.4 kPa | vapor or sublimation pressure (381.53 K): 68.67 ± 5.5 kPa | vapor or sublimation pressure (381.76 K): 69.31 ± 5.5 kPa | vapor or sublimation pressure (382.08 K): 70.21 ± 5.6 kPa | vapor or sublimation pressure (382.28 K): 70.63 ± 5.7 kPa | vapor or sublimation pressure (382.55 K): 71.31 ± 5.7 kPa | vapor or sublimation pressure (382.78 K): 71.95 ± 5.8 kPa | vapor or sublimation pressure (383.05 K): 72.65 ± 5.8 kPa | vapor or sublimation pressure (383.29 K): 73.35 ± 5.9 kPa | vapor or sublimation pressure (383.53 K): 73.93 ± 5.9 kPa | vapor or sublimation pressure (383.76 K): 74.63 ± 6 kPa | vapor or sublimation pressure (384.09 K): 75.48 ± 6 kPa | vapor or sublimation pressure (384.26 K): 75.99 ± 6.1 kPa | vapor or sublimation pressure (384.5 K): 76.63 ± 6.1 kPa | vapor or sublimation pressure (384.74 K): 77.35 ± 6.2 kPa | vapor or sublimation pressure (384.95 K): 77.93 ± 6.2 kPa | vapor or sublimation pressure (385.42 K): 79.27 ± 6.3 kPa | vapor or sublimation pressure (385.65 K): 80 ± 6.4 kPa | vapor or sublimation pressure (385.87 K): 80.56 ± 6.5 kPa | vapor or sublimation pressure (386.24 K): 81.79 ± 6.5 kPa | vapor or sublimation pressure (386.32 K): 81.88 ± 6.5 kPa | vapor or sublimation pressure (386.54 K): 82.68 ± 6.6 kPa | vapor or sublimation pressure (386.76 K): 83.23 ± 6.7 kPa | vapor or sublimation pressure (386.96 K): 84.05 ± 6.7 kPa | vapor or sublimation pressure (387.37 K): 85.27 ± 6.8 kPa | vapor or sublimation pressure (387.8 K): 86.61 ± 6.9 kPa | vapor or sublimation pressure (388.23 K): 88 ± 7 kPa | vapor or sublimation pressure (388.66 K): 89.39 ± 7.2 kPa | vapor or sublimation pressure (389.07 K): 90.69 ± 7.3 kPa | vapor or sublimation pressure (389.51 K): 92.16 ± 7.4 kPa | vapor or sublimation pressure (389.9 K): 93.44 ± 7.5 kPa | vapor or sublimation pressure (390.26 K): 94.61 ± 7.6 kPa | vapor or sublimation pressure (390.65 K): 95.95 ± 7.7 kPa | vapor or sublimation pressure (391.05 K): 97.27 ± 7.8 kPa | vapor or sublimation pressure (391.46 K): 98.71 ± 7.9 kPa
